According to publication PMC3539763 (ACS medicinal chemistry letters, 2010):
Entries after “also recorded” stand apart in the source; their conditions may differ.

Assays:
[1] = biological target: rat mGlu5 (Rattus norvegicus, UniProt P31424); assay: calcium fluorescence; format: cell-based; conditions: for less potent than 10e: potentiation EC50 relative to 10e
[2] = biological target: mGlu5 (Rattus norvegicus, UniProt P31424); assay: radioligand binding with [3H]3-methoxy-PEPy; conditions: at highest concentration, 30 μM; partial and incomplete; data not shown
[3] = kinetic aqueous solubility screen; conditions: aqueous medium
[4] = system: open field locomotor activity; assay: open field locomotor activity, compound dosed alone; format: in vivo, rat; conditions: dosed alone at 56.6 mg/kg
[5] = transcellular permeability; conditions: >20 × 10^-6 cm/sec is preferred for CNS targets
[6] = stability in rat liver microsomes; conditions: after 60 min
[7] = stability in human liver microsomes; conditions: after 60 min

Sequence of rat mGlu5 (P31424 21-1203): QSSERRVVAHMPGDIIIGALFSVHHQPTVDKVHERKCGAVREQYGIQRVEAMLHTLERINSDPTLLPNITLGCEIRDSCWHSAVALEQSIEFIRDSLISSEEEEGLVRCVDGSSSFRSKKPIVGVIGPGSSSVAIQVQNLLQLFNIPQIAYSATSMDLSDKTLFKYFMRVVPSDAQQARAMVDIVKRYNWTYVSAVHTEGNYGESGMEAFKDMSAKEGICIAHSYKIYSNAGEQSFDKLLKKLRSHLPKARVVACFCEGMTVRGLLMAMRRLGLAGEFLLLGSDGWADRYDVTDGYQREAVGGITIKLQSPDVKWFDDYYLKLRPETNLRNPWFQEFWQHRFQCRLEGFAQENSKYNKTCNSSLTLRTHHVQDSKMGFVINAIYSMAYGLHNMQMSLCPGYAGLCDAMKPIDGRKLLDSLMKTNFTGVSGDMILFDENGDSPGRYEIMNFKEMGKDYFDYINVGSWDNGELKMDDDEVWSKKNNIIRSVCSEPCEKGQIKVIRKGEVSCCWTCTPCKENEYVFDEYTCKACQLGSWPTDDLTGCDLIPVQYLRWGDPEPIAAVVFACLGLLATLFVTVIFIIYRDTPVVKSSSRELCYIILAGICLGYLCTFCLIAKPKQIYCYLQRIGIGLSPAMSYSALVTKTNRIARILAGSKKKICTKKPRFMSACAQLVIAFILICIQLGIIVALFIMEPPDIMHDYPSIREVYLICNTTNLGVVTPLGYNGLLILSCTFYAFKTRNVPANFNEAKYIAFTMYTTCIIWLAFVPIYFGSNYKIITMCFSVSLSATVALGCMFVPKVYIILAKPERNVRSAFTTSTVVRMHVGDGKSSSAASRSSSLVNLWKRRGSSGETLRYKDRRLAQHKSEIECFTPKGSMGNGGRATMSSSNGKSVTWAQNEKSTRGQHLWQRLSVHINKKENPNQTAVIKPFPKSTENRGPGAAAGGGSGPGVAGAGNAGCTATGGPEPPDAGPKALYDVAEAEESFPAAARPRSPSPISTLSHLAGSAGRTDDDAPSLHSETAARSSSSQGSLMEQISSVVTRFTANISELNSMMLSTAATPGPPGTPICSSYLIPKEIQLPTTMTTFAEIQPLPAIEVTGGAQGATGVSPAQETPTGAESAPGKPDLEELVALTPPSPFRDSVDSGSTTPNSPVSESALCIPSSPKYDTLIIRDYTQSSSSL
Sequence of mGlu5 (P31424 21-1203): as above

## COc1ccccc1N1CCN(C(=O)COCc2ccccc2)CC1 [10c]
[1]
  less potent than 10e: > 5 fold

## N#Cc1ccccc1N1CCN(C(=O)COCc2ccccc2)CC1 [10e]
[2]
  displacement of [3H]3-methoxy-PEPy radioligand: ca. 50%
[1]; CRC in absence of glutamate
  concentration at which compound alone slightly activates mGlu5: above 30 μM
[1]; compound alone, no glutamate, up to 10 μM
  mGlu5 agonism of compound alone: no inherent mGlu5 agonism; also recorded: no effect
[1]; potentiator of the glutamate EC20
  potency enhancement vs. lead 8: > 3 fold
[3]
  solubility kinetic: > 30 µg/mL
[4]
  sedation / abnormal behavior in open field locomotor activity: no sedation or abnormal behavior; also recorded: without causing sedation
[5]
  transcellular permeability: acceptable
[6]
  parent compound remaining: less than 5%
[7]
  parent compound remaining: less than 5%

## COC(=O)c1ccccc1N1CCN(C(=O)COCc2ccccc2)CC1 [10f]
[1]
  less potent than 10e: > 5 fold

## O=C(COCc1ccccc1)N1CCN(c2ncccn2)CC1 [10h]
[1]
  EC50: > 10 µM
